From BindingDB's records for patent US10143681 (Merck Sharp & Dohme, 2018)

Biological target: Plasma kallikrein (Homo sapiens, UniProt P03952)
Experiment: Kallikrein Assay
Protocol: The effectiveness of a compound of the present invention as an inhibitor of Kallikrein can be determined using a relevant purified serine protease, and an appropriate synthetic substrate. The rate of hydrolysis of the chromogenic or fluorogenic substrate by the relevant serine protease was measured both in the absence and presence of compounds of the present invention. Assays were conducted at room temperature or at 37° C. […] A decrease in the rate of fluorescence change in the presence of inhibitor is indicative of enzyme inhibition. Such methods are known to one skilled in the art. […] Times required to achieve equilibration between enzyme and inhibitor were determined in control experiments. […] IC50 was determined by inflection point from a four parameter logistic curve fit. Ki was calculated using the Cheng Prusoff equation, Ki=IC50/(1+([S]/Km)).

Sequence of Plasma kallikrein (P03952 20-390 limits assumed): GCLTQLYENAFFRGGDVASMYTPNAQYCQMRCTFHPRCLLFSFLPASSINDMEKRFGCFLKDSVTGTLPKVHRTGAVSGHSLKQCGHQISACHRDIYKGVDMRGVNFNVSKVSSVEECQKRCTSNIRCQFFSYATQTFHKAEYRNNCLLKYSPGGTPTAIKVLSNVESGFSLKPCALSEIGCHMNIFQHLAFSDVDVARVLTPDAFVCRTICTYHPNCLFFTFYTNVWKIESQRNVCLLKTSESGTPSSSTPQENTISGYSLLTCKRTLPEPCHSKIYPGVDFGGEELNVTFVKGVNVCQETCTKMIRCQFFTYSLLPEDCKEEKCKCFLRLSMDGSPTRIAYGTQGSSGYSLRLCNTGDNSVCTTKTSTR
Sequence of Plasma kallikrein (P03952 391-638 limits assumed): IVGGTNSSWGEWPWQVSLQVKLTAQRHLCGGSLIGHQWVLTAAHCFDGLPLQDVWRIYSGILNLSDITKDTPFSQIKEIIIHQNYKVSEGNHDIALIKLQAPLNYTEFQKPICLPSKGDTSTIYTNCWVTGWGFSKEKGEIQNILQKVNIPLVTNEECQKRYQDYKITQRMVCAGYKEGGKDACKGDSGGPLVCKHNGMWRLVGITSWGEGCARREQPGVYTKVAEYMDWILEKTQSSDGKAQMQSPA

SMILES: COc1cc([C@@H](CC2CC2)C(=O)Nc2ccc(C(=O)O)cc2)[n+]([O-])cc1-c1c(C(F)F)ccc(Cl)c1F [US10143681, Example 69]
- IC50: 0.042 µM
